Results: PMC10982999, “Structure-Guided Design and Optimization of Covalent VHL-Targeted Sulfonyl Fluoride PROTACs” (Journal of Medicinal Chemistry, 2024)

How the values were obtained:
[1] = target: T1, AR (AR-HiBiT LNCaP cells) (Homo sapiens, UniProt P10275, T878A); test: AR HiBiT degradation assay; assay type: cell-based; conditions: for Dmax / DC50: LNCaP; for Dmax: read-out: Dmax (AR degradation); for AR degradation in presence of MLN4924: MLN4924 1 μM 3 h pretreatment, then compound 18 h; for AR degradation in presence of epoxomicin: epoxomicin 1 μM 3 h pretreatment, then compound 16 h; for DC50: read-out: DC50 (AR degradation), 16 h
T1 construct: host or cells: AR-HiBiT KI LNCaP
T1 sequence (P10275 1-920 T878A): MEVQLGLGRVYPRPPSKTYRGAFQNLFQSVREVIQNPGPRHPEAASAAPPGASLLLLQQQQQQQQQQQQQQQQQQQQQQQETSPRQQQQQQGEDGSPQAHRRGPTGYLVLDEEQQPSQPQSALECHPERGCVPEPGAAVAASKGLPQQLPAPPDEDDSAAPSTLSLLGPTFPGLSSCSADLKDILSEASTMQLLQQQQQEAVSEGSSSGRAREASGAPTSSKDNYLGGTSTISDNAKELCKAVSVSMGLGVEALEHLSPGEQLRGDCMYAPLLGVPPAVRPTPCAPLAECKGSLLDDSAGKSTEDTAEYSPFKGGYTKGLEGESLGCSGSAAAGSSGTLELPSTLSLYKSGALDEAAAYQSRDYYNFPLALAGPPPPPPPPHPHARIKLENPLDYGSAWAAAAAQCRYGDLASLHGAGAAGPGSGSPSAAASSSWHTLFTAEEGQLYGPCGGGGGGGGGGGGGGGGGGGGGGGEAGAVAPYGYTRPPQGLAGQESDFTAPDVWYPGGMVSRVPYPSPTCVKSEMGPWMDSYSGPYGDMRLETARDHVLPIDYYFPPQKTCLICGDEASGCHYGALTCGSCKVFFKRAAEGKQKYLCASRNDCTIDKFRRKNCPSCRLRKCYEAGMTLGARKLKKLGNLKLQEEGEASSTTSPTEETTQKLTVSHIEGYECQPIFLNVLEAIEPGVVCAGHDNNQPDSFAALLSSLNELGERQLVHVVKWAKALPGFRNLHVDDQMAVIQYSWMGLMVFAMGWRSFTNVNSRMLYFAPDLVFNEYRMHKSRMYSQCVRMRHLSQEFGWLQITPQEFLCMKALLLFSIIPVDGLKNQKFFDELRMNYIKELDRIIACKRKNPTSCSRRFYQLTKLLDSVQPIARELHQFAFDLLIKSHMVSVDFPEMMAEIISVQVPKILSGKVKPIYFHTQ
Method: Cellular BRD4/AR HiBiT assay
The HiBiT tagged cells were seeded at 10,000 cells per well in a 384-well plate (Thermo Scientific, 164610) at 25 µL per well in DMEM media containing 10% FBS and incubated overnight. Compounds were dispensed using D300e Digital Dispenser (HP) and normalized to 0.1% DMSO. Cells were pre-treated with Epoxomicin or MLN4924 for 3 h before treatment […]
Nano -Glo HiBiT lytic detection assay was performed as described in the manufacturer protocol (Promega). 25 µL of premixed detection reagent was added to each well of the 384 well assay plate and incubated for 15 min on an orbital shaker (at 600 RPM), and luminescence was read using a PHERAstar FS plate reader (BMG Labtech). Corresponding background RLU values were subtracted from DMSO control values and the percentage of protein (%) of were then calculated against […]
DMSO-treated controls. […]
1:1000 WB), Tubulin (Sigma #4967S 1:5000 WB).

[2] = test system: AR-HiBiT LNCaP cells; conditions: 16 h, 75 μM-1 pM

Cc1cc([C@H](C(=O)N2C[C@H](S(=O)(=O)F)C[C@H]2C(=O)N[C@@H](CC(=O)N2CCC(C#Cc3ccc(C(=O)N[C@H]4C(C)(C)[C@H](Oc5ccc(C#N)c(C(F)(F)F)c5)C4(C)C)cc3)CC2)c2ccc(-c3scnc3C)cc2)C(C)C)on1 [AR-VHL-SF2, (3R,5S)-5-(((S)-3-(4-((4-(((1r,3r)-3-(4-Cyano-3-(trifluoromethyl)phenoxy)-2,2,4,4-tetramethyl-cyclobutyl)carbamoyl)phenyl)ethynyl)piperidin-1-yl)-1-(4-(4-methylthiazol-5-yl)phenyl)-3-oxo-propyl)carbamoyl)-1-((R)-3-methyl-2-(3-methylisoxazol-5-yl)butanoyl)pyrrolidine-3-sulfonyl fluoride]
Dmax [1]: 54% | AR degradation in presence of MLN4924 [1]: AR degradation blockade | AR degradation in presence of epoxomicin [1]: AR degradation blockade | DC50 [1]: 527 nM | cytotoxicity (CellTiter-Glo) [2]: did not exhibit cytotoxicity

Cc1cc([C@H](C(=O)N2C[C@H](S(=O)(=O)F)C[C@H]2C(=O)N[C@@H](CC(=O)N2CCC(C#Cc3ccc(C(=O)N[C@H]4C(C)(C)[C@H](Oc5ccc(C#N)c(Cl)c5)C4(C)C)cc3)CC2)c2ccc(-c3scnc3C)cc2)C(C)C)on1 [AR2-VHL-SF2, (3R,5S)-5-(((S)-3-(4-((4-(((1r,3r)-3-(3-Chloro-4-cyanophenoxy)-2,2,4,4-tetramethylcyclobutyl)-carbamoyl)phenyl)ethynyl)piperidin-1-yl)-1-(4-(4-methylthiazol-5-yl)phenyl)-3-oxopropyl)-carbamoyl)-1-((R)-3-methyl-2-(3-methylisoxazol-5-yl)butanoyl)pyrrolidine-3-sulfonyl fluoride]
Dmax [1]: 59% | AR degradation in presence of MLN4924 [1]: AR degradation blockade | AR degradation in presence of epoxomicin [1]: AR degradation blockade | DC50 [1]: 212 nM | cytotoxicity (CellTiter-Glo) [2]: did not exhibit cytotoxicity
